# Reference: US9029345B2, “Selective inhibitors of translesion DNA replication” (Case Western Reserve University, priority 2005, dated 2015)
# Columns and labels:
# control Sf9 membranes = assay: ATPase activity of control Sf9 membranes; assay type: biochemical
# Experimental: (§1) The in vitro activity of the triphosphate of 5-CHInd (5-CHITP) against P-gp was evaluated through its ability to inhibit vinblastine-stimulated ATP hydrolysis. These experiments used purified P-gp membranes expressed and isolated in Sf9 insect cells (BD Biosciences). ATP hydrolysis was quantified by the amount of ^32Pi release from γ^32P-ATP as a function of time. Reactions containing vinblastine were initiated by the addition of membranes and quenched in trichloroacetic acid and ammonium heptamolybdate. Heptamolybdophosphoric acid was separated by organic phase extraction and the presence of ^32Pi was quantified by liquid scintillation counting. […] The inhibition of 5-CHITP is selective for P-gp as the ATPase activity of control Sf9 membranes is not inhibited whereas sodium orthovanadate inhibits by about 50%.
# P-gp [1] = biological target: T1, P-gp (Homo sapiens, UniProt P08183); assay: vinblastine-stimulated ATP hydrolysis by purified P-gp membranes (32Pi release); assay type: biochemical; set-up: endogenous in cells
# Experimental: as §1
# P-gp [2] = biological target: T1, P-gp; assay: control experiments: potentiation of other chemotherapeutic agents; conditions: does not inhibit P-gp
# CEM-C7 cells = assay: intracellular [3H]-vinblastine accumulation and efflux in CEM-C7 cells; assay type: cell-based; conditions: devoid of P-gp
# P-glycoprotein [3] = biological target: T2, P-glycoprotein (Homo sapiens, UniProt P08183); assay: export of Hoechst dye from CEM/VBL cells overexpressing P-gp; assay type: cell-based; conditions: sub-lethal concentration, compared to untreated CEM/VBL
# T2 construct: endogenous in cells; host or cells: CEM/VBL (CEM-VBL) leukemia cells
# From the text: (§2) This was first determined using the NIMH Psychoactive Drug Screening Program (PDSP) which performs pharmacological and functional screens of novel compounds. This initial screening effort lead us to test the ability of 5-CHInd to block the export of Hoechst dye, a known substrate for P-gp. Control experiments verify that CEM cells not overexpressing p-glycoprotein show accumulation of the Hoechst dye as indicated by nuclear staining (FIG. 3A).
# CDKs = assay: flow cytometry, cell cycle; assay type: cell-based; conditions: preliminary flow cytometry data
# P-glycoprotein [4] = biological target: T2, P-glycoprotein; assay: NIMH Psychoactive Drug Screening Program (PDSP) screen; conditions: first determined using PDSP
# From the text: as §2
# SKOV3 cells = assay: potentiation of vinblastine in SKOV3 cells; assay type: cell-based; conditions: 25 or 50 μg/ml 5-CHInd with 0.5 or 1 μg/ml vinblastine
# Experimental: (§3) The potentiation of vinblstine by 5-CHInd was also assessed in MDR negative cesll (SKOV3) and MDR positive SKOV/VBL cells by administering various concentrations of vinblastine and 5-CHInd to the cells. FIG. 6 is a graph illustrating the cytoxic effect of 25 μg/ml of 5-CHInd (CH25), 50 μg/ml of 5-CHInd (CH50), 0.5 μg/ml of vinblastine (VinB 0.5), 1 μg/ml of vinblastine (VinB 1), 25 μg/ml of 5-CHInd in combination with 0.5 μg/ml of vinblastine (CH25+VinB 0.5), 25 μg/ml of 5-CHInd in combination with 1 μg/ml of vinblastine (CH25+VinB 1), 50 μg/ml of 5-CHInd in combination with 0.5 μg/ml of vinblastine (CH50+VinB 0.5), and 50 μg/ml of 5-CHInd in combination with 1 μg/ml of vinblastine (CH50+VinB 1) administered respectively to SKOV3 and SKOV/VBL cells.
# P-gp [5] = biological target: T1, P-gp
# SKOV/VBL cells = assay: potentiation of vinblastine in SKOV/VBL cells; assay type: cell-based; conditions: 25 or 50 μg/ml 5-CHInd with 0.5 or 1 μg/ml vinblastine
# Experimental: as §3
# P-gp [6] = biological target: T1, P-gp; assay: intracellular [3H]-vinblastine accumulation and efflux in CEM-VBL cells; assay type: cell-based; set-up: endogenous in cells
# Experimental: Intracellular drug accumulation studies use confluent CEM-C7 and CEM-VBL cells incubated with [^3H]-vinblastine (Moravek Biochemicals, Brea, Calif.) in the absence or presence of 5-CHInd. After attainment of equilibrium, cells are harvested and washed to remove any unbound [^3H]-vinblastine. Washed cells are then solubized and the retained radioactivity is quantified by liquid scintillation techniques. Measured radioactivity is normalized for protein content, and drug accumulation is expressed as a percentage of the vehicle control.
# To measure the effect of 5-CHInd on the efflux of [^3H]-vinblastine, CEM-VBL cells are incubated with a sub-lethal dose of 5-CHInd or vehicle (DMSO) followed by the addition of a fixed concentration of [^3H]-vinblastine. After attainment of equilibrium, cells are washed and aliquots are analyzed for [^3H]-vinblastine accumulation at variable times (5 to 120 minutes). The efflux rate constant is obtained from a fit of the data to y=Ae^−kt where y is the amount of radioactivity at time t, A is maximal amplitude in accumulation, k is the efflux rate constant, and t is time.
# T1 sequence (P08183 whole entry): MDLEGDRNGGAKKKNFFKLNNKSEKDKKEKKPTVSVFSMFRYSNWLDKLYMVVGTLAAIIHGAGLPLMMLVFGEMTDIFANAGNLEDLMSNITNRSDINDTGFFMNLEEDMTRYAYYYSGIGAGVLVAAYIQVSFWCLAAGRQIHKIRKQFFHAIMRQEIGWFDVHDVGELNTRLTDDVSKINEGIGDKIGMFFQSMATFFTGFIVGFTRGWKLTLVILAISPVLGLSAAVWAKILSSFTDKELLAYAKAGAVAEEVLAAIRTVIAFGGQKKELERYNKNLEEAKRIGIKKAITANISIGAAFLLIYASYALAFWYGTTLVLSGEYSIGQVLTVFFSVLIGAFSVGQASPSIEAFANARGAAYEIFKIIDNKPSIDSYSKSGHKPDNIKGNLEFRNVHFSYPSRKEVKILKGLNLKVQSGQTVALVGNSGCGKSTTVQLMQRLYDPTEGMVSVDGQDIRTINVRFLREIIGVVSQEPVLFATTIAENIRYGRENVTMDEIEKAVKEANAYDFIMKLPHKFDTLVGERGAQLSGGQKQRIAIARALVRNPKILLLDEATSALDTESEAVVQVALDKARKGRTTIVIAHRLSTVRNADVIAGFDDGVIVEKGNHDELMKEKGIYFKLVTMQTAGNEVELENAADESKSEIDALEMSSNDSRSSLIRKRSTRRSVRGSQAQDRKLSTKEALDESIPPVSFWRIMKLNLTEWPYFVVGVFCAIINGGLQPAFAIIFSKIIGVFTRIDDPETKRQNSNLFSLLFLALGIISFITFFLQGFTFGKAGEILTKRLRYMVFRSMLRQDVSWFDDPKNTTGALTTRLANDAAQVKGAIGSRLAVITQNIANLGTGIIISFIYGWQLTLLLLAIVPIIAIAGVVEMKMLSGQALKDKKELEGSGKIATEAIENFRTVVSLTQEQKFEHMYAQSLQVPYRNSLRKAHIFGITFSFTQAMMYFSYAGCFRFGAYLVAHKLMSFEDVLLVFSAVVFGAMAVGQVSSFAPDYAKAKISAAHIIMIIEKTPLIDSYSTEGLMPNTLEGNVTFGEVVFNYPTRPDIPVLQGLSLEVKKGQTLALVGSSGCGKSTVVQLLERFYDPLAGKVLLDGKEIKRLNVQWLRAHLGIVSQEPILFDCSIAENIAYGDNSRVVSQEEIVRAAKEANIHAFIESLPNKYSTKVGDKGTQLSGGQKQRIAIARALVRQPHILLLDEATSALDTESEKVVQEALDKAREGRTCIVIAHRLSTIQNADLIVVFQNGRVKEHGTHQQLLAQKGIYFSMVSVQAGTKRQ
# T2 sequence (P08183 whole entry): as above
compound,measurement,setting,value
O=P(O)(O)OP(=O)(O)OP(=O)(O)OC[C@H]1O[C@@H](n2ccc3cc(C4CCCCC4)ccc32)C[C@@H]1O [5-CHITP],inhibition of ATPase activity of control Sf9 membranes,control Sf9 membranes; 5-CHITP,not inhibited
same,inhibition of ATPase activity of P-gp,P-gp [1]; 50 μM,52%
"[Na+].[Na+].[Na+].[O]=[V]([O-])([O-])[O-] [sodium orthovanadate, reference compound]",inhibition of ATPase activity of control Sf9 membranes,control Sf9 membranes; sodium orthovanadate,about 50%
same,inhibition of ATPase activity of P-gp,"P-gp [1]; 1 μM, compared with 52% by 50 μM 5-CHITP",comparable
OC[C@H]1OC(n2ccc3cc(-c4ccccc4)ccc32)C[C@@H]1O (some centres unmarked) [5-PhInd],cell death,"leukemia cell lines; at the concentrations tested, data not shown",cause cell death
CN[C@@H]1C[C@H]2O[C@@](C)([C@@H]1OC)n1c3ccccc3c3c4c(c5c6ccccc6n2c5c31)C(=O)NC4 [staurosporine],action as potentiating agent,P-gp [2],does not act as a potentiating agent
"OC[C@H]1OC(n2ccc3cc(C4CCCCC4)ccc32)C[C@@H]1O (some centres unmarked) [5-CHInd, 5-cylclohexyl-1-indolyl-2-deoxyriboside]",effect on accumulation or efflux of [3H]-vinblastine,CEM-C7 cells,no effect
same,accumulation of Hoechst dye (inhibition of P-gp export),P-glycoprotein [3],enhanced accumulation of the Hoechst dye
same,cell cycle arrest,CDKs,induces cell cycle arrest
same,inhibition of p-glycoprotein activity,P-glycoprotein [4],can inhibit the activity of p-glycoprotein
same,LD50,leukemia cell lines,about 20 μg/mL
same,"cytotoxic effect (flow cytometry, FIG. 2)","leukemia cell lines; leukemia cells, closely mimics staurosporine",rapid cytotoxic effect
same,potentiation of vinblastine (FIG. 6),SKOV3 cells,potentiation of vinblastine
same,potentiation of the effects of 5-fluorouracil,P-gp [5],does not potentiate
same,potentiation of the effects of cisplatin,P-gp [5],does not potentiate
same,potentiation of the effects of doxorobucin,P-gp [5],potentiates
same,potentiation of the effects of paclitaxel,P-gp [5],potentiates
same,potentiation of vinblastine (FIG. 6),SKOV/VBL cells,potentiation of vinblastine
same,accumulation of [3H]-vinblastine,P-gp [6],significant accumulation
same,rate constant for drug efflux,P-gp [6]; compared to vehicle-treated cells,decrease in rate constant for drug efflux
